Measurements: patent US20170172955A1, “Treatment of Mixed Dyslipidemia” (priority 2015, published 2017)

Legend:
[1] = system: cholesterol and triglyceride synthesis; assay: Inhibition of plasma and hepatic cholesterol and triglyceride synthesis in apoB100/Lp(a) mice; assay type: in vivo, mouse
Protocol: The apoB100/Lp(a) (cross of mice transgenic for human apoB100 and human apo(a)) mice) were obtained from Charles River. There were 8 animals per treatment group. […] Mice were acclimated for a minimum of 7 days to a reverse 12 hour light/12 hour dark cycle prior to administration of the first dose of test drug or vehicle. […] Test drugs and vehicle were given once daily. Thirty minutes after the eighth dose, 12.5 μCi [^14C] sodium acetate was administered. […] Individual plasma samples were acquired by placing whole blood samples into EDTA loaded centrifuge tubes and centrifuged. Plasma was transferred to new tubes and stored at −20° C. until assayed for [^14C] labeled cholesterol. Liver samples were flash frozen in liquid nitrogen and stored at −80° C. until assayed for [^14C] labeled cholesterol and triglycerides. Assay for plasma [^14C] labeled cholesterol. […] Additionally, 0.025 μCi […] (Perkin Elmer Life Sciences Inc. Boston, Mass.) was added to each sample, and to 2 or 3 spike controls in 7-mL scintillation vials, as an extraction internal standard. […] Samples were vortexed and saponified at 75° C. for 1 hour. After the samples cooled […] [^14C] labeled cholesterol was extracted with 2.5 mL petroleum ether per sample and shaken for 10 minutes, and then centrifuged for 10 minutes at 0° C. […] Each sample was then dissolved in 0.25 mL of 2 parts chloroform to 1 part per methanol by sonication. Five mL scintillant was added to each sample and the spike controls for direct [^3H] and [^14C] […] per minute (DPM) recording using a Packard 2500TR Tri-Carb Liquid Scintillation Analyzer. […] Assay for liver [^14C] labeled cholesterol and triglycerides. Frozen liver samples were kept on dry ice during sample weighing procedures and assay preparations. Each sample was homogenized in a solution of ice-cold methanol;0.5 N acetic acid. […] Samples were then vortexed and centrifuged for 20 minutes at 3000 rpm at room temperature to separate the phases. The lower chloroform layer was transferred to new vials. The remaining upper aqueous phase was extracted in like manner with 15 mL chloroform 2 more times. […] The aqueous phase was discarded and the chloroform phase was washed 2 times in like manner with 15 mL 1 part methanol to 1 part water, discarding the aqueous phase. The chloroform samples were evaporated under nitrogen gas, and resuspended in 600 μL chloroform and 30 μL removed for scintillation counting. Sample volumes were adjusted for corrected percent recovery and a calculated volume to load based on total liver weight. Calculated volumes were spotted onto TLC plates and dried in an 80° C. oven. After the plates had cooled to room temperature, they were developed in 102 mL isooctane:diethyl ether:glacial acetic acid, 75:25:2, respectively. Plates were dried in an 80° C. oven and allowed to cool to room temperature, wrapped in plastic wrap, and exposed to the phosphorimager screen. Imagequant software was used to quantitate cholesterol and triglyceride bands.

[2] = system: STAM model of non-alcoholic steatohepatitis (NASH)
Protocol: Telmisartan (Micardis®) was purchased from Boehringer Ingelheim GmbH (Germany) and dissolved in pure water.
Telmisartan was administered at a dose of 10 mg/kg once daily.
Measurement of whole blood and plasma biochemistry: Eight-hour fasting blood samples were collected from facial vein at 3 days prior to termination.
Eight-hour fasting blood glucose was measured in whole blood using Life Check (EIDIA Co. Ltd., Japan). For plasma biochemistry, eight-hour fasting blood was collected in polypropylene tubes with anticoagulant (Novo-Heparin, Mochida Pharmaceutical, Japan) and centrifuged at 1,000×g for 15 minutes at 4° C. The supernatant was collected and stored at −80° C. until use. Plasma insulin levels were quantified by Ultra Sensitive Mouse Insulin ELISA kit (Morinaga Institute of Biological Science, Inc., Japan).
On the day of termination, non-fasting blood glucose was measured in whole blood using Life Check. For plasma biochemistry, non-fasting blood was collected in polypropylene tubes with anticoagulant (Novo-Heparin) and centrifuged at 1,000×g for 15 minutes at 4° C. The supernatant was collected and stored at −80° C. until use. Plasma ALT, AST, ALP, GGT, BUN, creatinine and total bilirubin levels were measured by FUJI DRI-CHEM 7000 (Fujifilm Corporation, Japan). Plasma ketone body levels were quantified by EnzyChrom™ Ketone Body Assay Kit (BioAssay Systems, USA). […]
Histological analyses: For HE staining, sections were cut from paraffin blocks of liver tissue prefixed in Bouin's solution and stained with Lillie-Mayer's Hematoxylin (Muto Pure Chemicals Co., Ltd., Japan) and eosin solution (Wako Pure Chemical Industries). […] To visualize collagen deposition, Bouin's fixed liver sections were stained using picro-Sirius red solution (Waldeck, Germany). […]
Statistical analyses were performed using Bonferroni Multiple Comparison Test on GraphPad Prism 6 (GraphPad Software Inc., USA). […] Results were expressed as mean±SD.
The viability, clinical signs and behavior were monitored daily. Body weight was recorded before the treatment. […] The animals were sacrificed by exsanguination through direct cardiac puncture under isoflurane anesthesia (Pfizer Inc.) at 9 weeks of age.

[3] = system: plasma fibrinogen; assay: Fibrinogen levels in rats (electro immunoassay); assay type: in vivo, rat; conditions: male Sprague-Dawley rats, 100 mg/kg/day oral, 14 days
Protocol: Fifty-Six male Sprague-Dawley rats were obtained from Charles River Laboratories. All animals were allowed normal rat chow (Ralston-Purina) and water ad libitum in temperature-controlled rooms, under a 12-hour light, 12-hour dark cycle beginning with lights on at 6 AM. Rats were distributed to 7 groups of 8 rats per group. […] Control animals received vehicle alone. […] CI-719 is gemfibrozil. […] The plasma fibrinogen plasma levels were determined by electro immunoassay. […] Data are shown in FIG. 12 as mean±SEM of as percent of control fibrinogen levels. *p<0.001, two-sided unpaired t-test, compared to control.

[4] = 3 mg/kg oral once daily, 8 doses
[5] = STAM mice, telmisartan 10 mg/kg PO QD, Day 18, 8 hours of fasting
[6] = STAM mice, telmisartan 10 mg/kg PO QD, termination (Day 21)
[7] = telmisartan 10 mg/kg PO QD, n = 7

CCC(C)(C)C(=O)O[C@H]1C[C@@H](C)C=C2C=C[C@H](C)[C@H](CC[C@@H]3C[C@@H](O)CC(=O)O3)[C@H]21 [Simvastatin, simvastatin, reference compound]
inhibition of cholesterol synthesis as measured in plasma ([1]; 3 mg/kg): 59% | lowering of cholesterol synthesis in liver tissue ([1]; 3 mg/kg): 82% | hepatic Cholesterol synthesis ([14C] sodium acetate), % Change from Vehicle [1, 4]: −82 ± 8 % | hepatic Triglycerides synthesis ([14C] sodium acetate), % Change from Vehicle [1, 4]: 4.0 ± 15%

CCCc1nc2c(C)cc(-c3nc4ccccc4n3C)cc2n1Cc1ccc(-c2ccccc2C(=O)O)cc1 [Telmisartan, reference compound]
Sirius Red positive area (mean ± SD) ([2]; STAM mice, telmisartan 10 mg/kg PO QD 6-9 wks): 0.48 ± 0.09% | NAFLD Activity score, NAS (mean ± SD) ([2]; STAM mice, telmisartan 10 mg/kg PO QD 6-9 wks, n = 7): 2.6 ± 1.0 | mortality during the treatment period ([2]; STAM mice, telmisartan 10 mg/kg PO QD, before reaching Day 21): one mouse was found dead | Fasting blood glucose (mean ± SD) [2, 5]: 742 ± 90 mg/dL | Plasma insulin (mean ± SD) [2, 5]: 0.16 ± 0.04 ng/mL | Liver hydroxyl-proline (mean ± SD) [2, 6]: 0.91 ± 0.21 μg/mg total protein | Liver triglyceride (mean ± SD) [2, 6]: 31.7 ± 6.4 mg/g liver | Non-fasting blood glucose (mean ± SD) [2, 6]: 856 ± 62 mg/dL | Plasma ALT (mean ± SD) [2, 6]: 39 ± 15 U/L | Plasma AST (mean ± SD) [2, 6]: 121 ± 38 U/L | Plasma ketone body (mean ± SD) [2, 6]: 8.11 ± 3.27 mM | number of mice with Hepatocyte ballooning score 0 (None) [2, 7]: 2 | number of mice with Hepatocyte ballooning score 1 (Few balloon cells) [2, 7]: 4 | number of mice with Hepatocyte ballooning score 2 (Many cells/prominent ballooning) [2, 7]: 1 | number of mice with Lobular inflammation score 0 (No foci) [2, 7]: 2 | number of mice with Lobular inflammation score 1 (<2 foci/200x) [2, 7]: 4 | number of mice with Lobular inflammation score 2 (2-4 foci/200x) [2, 7]: 1 | number of mice with Steatosis score 0 (<5%) [2, 7]: 1 | number of mice with Steatosis score 1 (5-33%) [2, 7]: 6

Cc1ccc(C)c(OCCCC(C)(C)C(=O)O)c1 [Gemfibrozil, gemfibrozil, reference compound]
reduction in plasma fibrinogen levels compared with control [3]: 31%
